Source: patent publication US20060154927A1 (priority 2003, published 2006)
Like-named read-outs stand apart in the source and are kept apart here.

System: Pyricularia oryzae
Assay type: in vivo
Settings: individual active compound, rice seedlings cultivar Tai-Nong 67, protective spray, evaluated 6 days after inoculation

Row | Structure (SMILES) | Efficacy in % of the untreated control (1 ppm in the spray liquor) | Efficacy in % of the untreated control (0.25 ppm in the spray liquor) | Efficacy in % of the untreated control (4 ppm in the spray liquor)
1 | CC1CCN(c2c(-c3c(F)cc(F)cc3F)c(Cl)nc3ncnn23)CC1 [I, 5-chloro-7-(4-methylpiperidin-1-yl)-6-(2,4,6-trifluorophenyl)-[1,2,4]triazolo[1,5-a]pyrimidine] | 11% | – | –
2 | CC1CCN(c2c(-c3c(F)cccc3Cl)c(Cl)nc3ncnn23)CC1 [A] | 11% | – | –
3 | COc1ccc(C(=CC(=O)N2CCOCC2)c2ccc(Cl)cc2)cc1OC [IIa, 3-(4-chlorophenyl)-3-(3,4-dimethoxyphenyl)-1-morpholin-4-ylpropenone] | – | 0% | 0%
4 | COc1ccc(C(=CC(=O)N2CCOCC2)c2ccc(F)cc2)cc1OC [IIb, 3-(4-fluorophenyl)-3-(3,4-dimethoxyphenyl)-1-morpholin-4-ylpropenone] | – | 0% | 0%
5 | C[C@H](Nc1c(-c2c(F)cc(F)cc2F)c(Cl)nc2ncnn12)C(F)(F)F [B] | 22% | – | –
